Measurements published in publication PMC12203697, “Bioactive constituents from the edible seaweed Halymenia hawaiiana (Rhodophyta)” (Pharmaceutical Biology, 2025).
Values after ≈ are worked out from the molar mass of the structure shown. Where two headings read alike, the source gives them in different places.

Legend:
[1] = Ferric-reducing antioxidant power (FRAP) assay
Description: The FRAP assay was used to evaluate antioxidant activity based on the ability of the sample to reduce Fe^3+-TPTZ (2,4,6-tris(2-pyridyl)-S-triazine) to Fe^2+-TPTZ (Benzie and Strain [1996]). This reduction results in a color change from colorless to blue. The absorbance was measured at 593 nm using a Microplate Reader (BioTek ELx800 Instruments Inc. Winooski, Vermont, USA) with the Gen 5 software for FRAP value calculations. A ferrous sulfate heptahydrate (FeSO4 · 7H2O) (Cat. No. 215422, Sigma-Aldrich, USA) standard curve, ranging from 1000 µM to 50 µM, was prepared for the assay. The FRAP reagent consists of 300 mM sodium acetate buffer (pH 3.6) (Cat. No. 90358, Sigma-Aldrich, USA), 10 mM TPTZ solution (Cat. No. T1253, Sigma-Aldrich, USA), and 20 mM ferric (III) chloride hexahydrate (FeCl3 · 6H2O) (Cat. No. 236489, Sigma-Aldrich, USA) in a 10:1:1 ratio, respectively, and heated to 37 °C for ten minutes before use. A blank was measured at 593 nm with 150 µL FRAP reagent added to each well of a 96-well microtiter plate. Samples (20 µL of each sample) (1, 0.5, 0.25 mg/mL) and ascorbic acid (Sigma-Aldrich, Cat. No. A4403) positive control (1 mg/mL) were added in triplicates. Reducing capacity was expressed by FRAP values in an µM FeSO4/µg sample unit.

[2] = tested on: LPS-induced nitric oxide (NO) production in RAW 264.7 cells; test: Inhibition of NO generation in LPS-induced RAW 264.7 cells (Griess); type: cell-based, murine; conditions: RAW 264.7 cells, LPS-induced, highest concentration 50 μg/mL
Description: The nitrite concentration in the culture medium was measured to indicate nitric oxide (NO) production as previously described (Min et al. [2009]). The murine macrophage RAW 264.7 cell line was obtained from ATCC, Manassas, VA, USA, and maintained in Dulbecco’s modified Eagle’s medium supplemented with 10% heat-inactivated FBS (Cat. No. A5670801, Gibco BRL Co, Grand Island, NY, USA), penicillin G (100 units/mL) (Cat. No. P7794, Sigma-Aldrich, USA), streptomycin (100 µg/mL) (Cat. No. S9137, Sigma-Aldrich, USA), and L-glutamine (2 mM) (Cat. No. 25030081, Gibco BRL Co, Grand Island, NY, USA). In brief, RAW 264.7 cells were seeded at a density of 4 × 10^4 cells/well in phenol red-free media (Cat. No. 11835030, Gibco, USA) in a 96-well plate, and incubated in a humidified incubator with 5% CO2 at 37 °C for 24 hr. […] The concentration of nitric oxide production was assessed using the Griess reagent, which consists of a 1:1 (v/v) mixture of 1% sulfanilamide (Cat No. A13001, Alfa Aesar, Massachusetts, USA) in H3PO4 and N-(1-naphthyl)ethylenediamine dihydrochloride (Cat. No. 102397, MP Biomedicals, USA). Absorbance was recorded with a microplate reader (SynergyMx, BioTeK, Winooski, VT, USA) at 540 nm. A standard curve was created using sodium nitrite (1–100 μM) (Cat. No. 44227, Alfa Aesar, Massachusetts, USA). A sulforhodamine B (SRB) assay was employed to assess the cellular viability of the samples with RAW 264.7 cells under a similar experimental setup. The final % inhibition of NO production was adjusted based on cell viability.

S. aureus CART817 = test: Antibacterial MIC, broth microdilution with resazurin; type: cell-based; conditions: Staphylococcus aureus; S. aureus CART817, Gram-positive; read-out: MIC
Description: (§1) The minimum inhibitory concentrations (MICs) were determined using a two-fold serial dilution method with MHB following the recommendations of the Clinical and Laboratory Standards Institute (CLSI [2012]; Elshikh et al. [2016]). In brief, serial two-fold dilutions of the samples in DMSO were mixed with MHB in a 96-well microplate. Then, 50 µL of bacteria suspension was added to each well, resulting in a final concentration of 1 × 10^4 colony-forming units/well. The plates were incubated at 35–37 °C for 18–24 hr. After incubation, 10 µL of 0.18% resazurin (Cat. No. R7017, Sigma-Aldrich, USA) was added to each well (Elshikh et al. [2016]). The MIC was assessed within 2–3 hr after the addition of resazurin. All antimicrobial assays were performed in triplicate, using vancomycin (Cat. No. SBR00001, Sigma-Aldrich, USA) and gentamicin (Cat. No. G1397, Sigma-Aldrich, USA) as standard controls.

MRSA POB2 = test: as above; type: cell-based, Staphylococcus aureus; conditions: MRSA POB2, Gram-positive
Text: (§2) Methicillin-resistant Staphylococcus aureus (MRSA), methicillin-susceptible S. aureus (MSSA), and Gram-negative clinical isolates of bacteria [Escherichia coli (9637) and Serratia marcescens ATCC 13880] were used for this study. […] MSSA HBP10, MSSA LUU7, MSSA R113, S. aureus ONE9, and MSSA POB2 were isolated in Hawaiʻi (Gerken et al. [2021]). Mueller Hinton Broth (MHB, GTIN:00382902979630, Becton, Dickinson and Company, Franklin Lakes, NJ, USA) and Mueller Hinton Agar (MHA, GTIN:00382902252504, Becton, Dickinson and Company, Franklin Lakes, NJ, USA,) were used for bacterial inoculation. MRSA was a pathogen strain causing hospital-acquired infections in 1982. This strain easily acquires resistance to antibiotics, such as vancomycin. MSSA strains isolated from the Island of Hawaiʻi included: Honolʻii Beach Park (HBP10) carry the genes erm(C), aph(3′)-III, and mecA, which provide resistance to macrolide, aminoglycoside, and beta-lactam antibiotics, respectively; Wailuku River (LUU7) which contains the blaZ gene (beta-lactam resistance) (Gerken et al. [2021]). Richardson’s Beach Park (R113) and Onekahakaha (ONE9) which is known for its virulence factors (hlgA, hlgB, hlgC, lukD, and lukE).
as §1

MRSA HBP10 = test: as above; type: cell-based, Staphylococcus aureus; conditions: MRSA HBP10, Gram-positive
Text: as §2, §1

S. aureus NEWMAN = test: as above; type: cell-based, Staphylococcus aureus; conditions: Staphylococcus aureus; S. aureus NEWMAN, Gram-positive; read-out: MIC
Text: as §2, §1

S. marcescent = test: as above; type: cell-based, Serratia marcescens; conditions: Gram-negative
Text: as §2, §1

MRSA USA300 = test: as above; type: cell-based; conditions: Staphylococcus aureus; MRSA USA300, Gram-positive; read-out: MIC
Text: as §2, §1

E. coli = test: as above; type: cell-based; conditions: Escherichia coli, Gram-negative
Text: as §2, §1

MSSA R113 = test: as above; type: cell-based; conditions: Staphylococcus aureus; MSSA R113, Gram-positive; read-out: MIC
Text: as §2, §1

S. aureus 8325-4 = test: as above; type: cell-based; conditions: Staphylococcus aureus, 83254; S. aureus 8325-4, Gram-positive; read-out: MIC
Text: as §2, §1

S. aureus ONE9 = test: as above; type: cell-based; conditions: Staphylococcus aureus; S. aureus ONE9, Gram-positive; read-out: MIC
Text: as §2, §1

MSSA LUU7 = test: as above; type: cell-based; conditions: Staphylococcus aureus; MSSA LUU7, Gram-positive; read-out: MIC
Text: as §2, §1

[3] = tested on: A549 human lung carcinoma epithelial cells; test: SRB cytotoxicity assay, A549 cells; conditions: SRB assay, 72 h, highest concentration tested 100 µg/ml
Description: After incubation, cells were fixed with trichloroacetic acid (Cat. No. T4885, Sigma-Aldrich, USA), stained with SRB (Cat. No. S9012, Sigma-Aldrich, USA), and the absorbance was measured at 515 nm. Percent cell death was calculated using the following equation: % Cell death=(ODc−OD0)‐(ODs−OD0)/(ODc−OD0)×100
OD0 = Optical density of cells before treatment (baseline reading).
ODC = Optical density of untreated control cells after 72 h.
ODS = Optical density of cells treated with the test sample after 72 h.
Non-linear regression analysis was performed using GraphPad Prism to calculate the IC50 value. This value reflects the concentration needed to inhibit cell growth by 50%.
All data are presented as mean ± standard error of the mean (SEM) and were collected from three separate experiments. Statistical analyses were conducted using Student’s t-test or ANOVA, followed by Tukey’s multiple comparisons test. Significance is indicated by *p < 0.05, **p < 0.01, and ***p < 0.001.

[4] = Staphylococcus aureus, read-out: MIC
[5] = Serratia marcescens, read-out: MIC

SMILES | MIC (MRSA POB2) | MIC (MRSA HBP10) | MIC (S. marcescent) | FRAP ([1]; FeSO4 standard curve) | FRAP ([1]; µM FeSO4/µg sample) | FRAP ([1]; µM FeSO4/µg sample, listed as ascorbic acid) | NO inhibitory activity (in words) [2] | MIC (S. aureus CART817) | MIC (MRSA POB2; [4]) | MIC (MRSA HBP10; [4]) | MIC (S. aureus NEWMAN) | MIC (S. marcescent; [5]) | MIC (MRSA USA300) | MIC (E. coli) | MIC (MSSA R113) | MIC (S. aureus 8325-4) | MIC (S. aureus ONE9) | MIC (MSSA LUU7) | cytotoxic response against A549 cells (in words) [3]
O=C1O[C@H]([C@@H](O)CO)C(O)=C1O [Ascorbic acid, ascorbic acid, reference compound] |  |  |  | 2847.40 µM | 35.59 ± 0.09 µM/µg | 35.59 µM/µg |  |  |  |  |  |  |  |  |  |  |  |  | 
Nc1ncnc2c1ncn2[C@H]1C[C@H](O)[C@@H](CO)O1 [Compound 2, deoxyadenosine] |  |  |  |  |  |  | no significant NO inhibitory activity | 128 µg/mL (≈ 509 µM) | 128 µg/mL (≈ 509 µM) | 128 µg/mL (≈ 509 µM) | 128 µg/mL (≈ 509 µM) | 64 µg/mL (≈ 255 µM) | 128 µg/mL (≈ 509 µM) | 128 µg/mL (≈ 509 µM) | 128 µg/mL (≈ 509 µM) | 128 µg/mL (≈ 509 µM) | 128 µg/mL (≈ 509 µM) | 128 µg/mL (≈ 509 µM) | no cytotoxic response
Nc1cc[nH]c(=O)n1 [Compound 3, cytosine] |  |  |  |  |  |  | no significant NO inhibitory activity | 128 µg/mL (≈ 1150 µM) | 128 µg/mL (≈ 1150 µM) | 128 µg/mL (≈ 1150 µM) | 128 µg/mL (≈ 1150 µM) | 128 µg/mL (≈ 1150 µM) | 128 µg/mL (≈ 1150 µM) | 128 µg/mL (≈ 1150 µM) | 128 µg/mL (≈ 1150 µM) | 128 µg/mL (≈ 1150 µM) | 128 µg/mL (≈ 1150 µM) | 128 µg/mL (≈ 1150 µM) | no cytotoxic response
CCCCCCCCCCCCCCCC(=O)O [Compound 5, palmitic acid] | Inactive | Inactive | Inactive | 88.06 µM | 1.10 ± 0.02 µM/µg |  |  |  |  |  |  |  |  |  |  |  |  |  | inactive

Second part, led by results:

MIC (MRSA POB2) | MIC (MRSA HBP10) | MIC (S. marcescent) | SMILES | FRAP ([1]; FeSO4 standard curve) | FRAP ([1]; µM FeSO4/µg sample) | FRAP ([1]; µM FeSO4/µg sample, listed as ascorbic acid) | NO inhibitory activity (in words) [2] | MIC (S. aureus CART817) | MIC (MRSA POB2; [4]) | MIC (MRSA HBP10; [4]) | MIC (S. aureus NEWMAN) | MIC (S. marcescent; [5]) | MIC (MRSA USA300) | MIC (E. coli) | MIC (MSSA R113) | MIC (S. aureus 8325-4) | MIC (S. aureus ONE9) | MIC (MSSA LUU7) | cytotoxic response against A549 cells (in words) [3]
Inactive | Inactive | Inactive | CCCCCCCCCCCCCCCC(C)=O [Compound 4, 2-heptadecanone] |  |  |  |  |  |  |  |  |  |  |  |  |  |  |  | 
Inactive | Inactive | Inactive | CCCCCCCCCCCCCCCC(=O)OC [Compound 6, methyl palmitate] | 499.40 µM | 6.24 ± 0.07 µM/µg |  |  |  |  |  |  |  |  |  |  |  |  |  | 
